# Experimental data: patent US20260240819A1, “KAT6 INHIBITOR METHODS AND COMBINATIONS FOR CANCER TREATMENT” (Pfizer Inc., priority 2020, published 2026)
# Key:
# [1] = test system: T47D cells; assay: Proliferation colony formation assay (SRB stain); assay type: cell-based
# Procedure: (§1) T47D, ZR-75-1, or MCF7 cells were seeded into 6-well tissue culture plates at 10% seeding confluence (100,000-150,000 cells per well). After allowing 18-24 hours for the cells to attach to the wells, growth media was aspirated and discarded and new growth media containing 0-20 μM of either COMPOUND A or COMPOUND B was added in 2-fold increments of descending concentration from 20 μM to the cells (proliferation assay). In parallel, seeded cultures with the same titration of the KAT6 inhibitors was added to the cells. 500 nM palbociclib was also added for each concentration of the KAT6 inhibitors (palbociclib recovery assay). The cultures were incubated 12-14 days and treated with these inhibitors/inhibitor combinations. Growth media containing the inhibitors was replaced on the cell cultures every 3-4 days (twice per week).
# For the KAT6 inhibitor treated T47D cultures (proliferation assay), after 12 days the vehicle (DMSO) treated cultures were >90% confluent and the cell cultures were SRB stained as described in Example 3. The stained 6-well plates were scanned using an Epson Perfection V600 Photo Scanner and Epson Scan version 3.9.2.0 software. To quantitate SRB staining in each 6-well culture, the cultures were destained with 2 mL 10 mM Tris pH 7.5 per well and the absorbance at 565 nm (O.D. 565) of the released stain was measured using a SpectraMax Plus plate reader and SoftMaxPro 5.4.3 software. Inhibition of T47D cell proliferation by both COMPOUND A and COMPOUND B were equivalent with 50% proliferation inhibition observed with 10 μM of the KAT6 inhibitors (FIGS. 8A and 8C).
# Cells were plated at low density into 6-well culture dishes and allowed to attach overnight at 37° C., 5% CO2. The next day, in parallel to the proliferation set, palbociclib was added at a final concentration of […] to another set of plates, which served as the set for palbociclib recovery. To both proliferation and palbociclib recovery plates, DMSO or KAT6 inhibitor was added into each well at increasing doses. Medium and KAT6 inhibitor were refreshed twice a week. Cells were cultured for about two weeks of drug treatment until the DMSO-treated wells reached confluency. At the end of treatment, cells were washed once with phosphate-buffered saline and were fixed and stained with SRB for visualization followed by quantification. […] Wells were fixed and stained with SRB for visualization followed by quantification. To quantify the stain, stained cells were dissolved in 2 mL of 10 mM Tris-HCl, pH 7.5 and shaken for 10 min on a shaker. Samples were then diluted with 10 mM Tris-HCl, pH 7.5, transferred to a 96-well microtiter plate in a volume of 100 μL and read on SpetraMax at 565 nm.
# [2] = test system: ZR-75-1 cells; assay: Proliferation colony formation assay (SRB stain); assay type: cell-based
# Procedure: as §1
# For the ZR-75-1 and MCF7 experiments, only COMPOUND A was tested. For the single agent treated ZR-75-1 cultures the vehicle treated cultures were >90% confluent after 12 days of treatment. These cultures were SRB stained, scanned, and destained/measured as described above. […] After 22 days of recovery, the ZR-75-1 cultures that had been treated with single agent 500 nM palbociclib were >90% confluent and these palbociclib recovery assay cultures were SRB stained, scanned, and destained/measured as described above.
# Cells were plated at low density into 6-well culture dishes and allowed to attach overnight at 37° C., 5% CO2. […] At the end of treatment, cells were washed once with phosphate-buffered saline and were fixed and stained with SRB for visualization followed by quantification. […] Wells were fixed and stained with SRB for visualization followed by quantification. To quantify the stain, stained cells were dissolved in 2 mL of 10 mM Tris-HCl, pH 7.5 and shaken for 10 min on a shaker. Samples were then diluted with 10 mM Tris-HCl, pH 7.5, transferred to a 96-well microtiter plate in a volume of 100 μL and read on SpetraMax at 565 nm.
# [3] = test system: estradiol response genes in T47D cells; assay: RNA-Seq gene set enrichment analysis; assay type: cell-based; conditions: 20 nM, 6-day treatment, GSEA
# Procedure: The following day, cells were treated with vehicle control (DMSO) or COMPOUND C at 20 nM concentration. Media and compounds were refreshed three days later for a total of 6-day treatment. At the end of the 6-day treatment, cells were harvested by trypsinization and lysed in Buffer RLT (Qiagen, Cat No./ID 79216)^+β-mercaptoethanol. RNA lysates were submitted for RNA sequencing (“RNA-Seq”) (WuXi NextCODE®).
# RNA-Seq data analysis: Adapter sequences were trimmed off from the Illumina raw reads, provided by WuXi NextCODE®, using Trimmomatic (v0.36) for paired-end reads, and low-quality reads were filtered out. Reads remaining after the pre-processing step were mapped to the reference genome hg38 using STAR (v2.6.0c). Gene level expression was quantitated as expected counts and transcripts per million (TPM) using “rsem-calculate-expression” of RSEM (v1.3.0) with default parameters. Differential expression analysis of robustly expressed genes (max expression across samples >=10) was performed using DESeq2 (v1.18.1) package. Gene set enrichment analysis (GSEA, v3.0) was conducted using GseaPreranked option. Genes were ranked based on signedlog10pval. Gene set collections (c2.all.v6.1) from Molecular Signatures Database (MSigDB) were used in this analysis.
# [4] = test system: ERα and Cyclin D1 in T47D cells; assay: Western blot after KAT6 inhibitor dose titration; assay type: cell-based; conditions: increasing concentrations, 14 days
# Procedure: Cells were plated at 10,000 cells per well into 6-well culture dishes and allowed to attach overnight at 37° C., 5% CO2. The next day, either COMPOUND C or COMPOUND D was added to wells at increasing concentrations, in addition to DMSO as vehicle control. Cells were cultured for 14 days with medium and KAT6 inhibitor refreshed twice a week (every 3-4 days). At the end of drug treatment, one million cells were collected via trypsinization for protein lysates. Cells were lysed in 100 μL 1× LDS buffer diluted from 4× LDS buffer (ThermoFisher catalog #NP0007) with reducing agent (ThermoFisher catalog #NP0009). The lysates were subsequently sonicated and loaded onto a NuPAGE 4-12% Bis-Tris gel (ThermoFisher, catalog #NP0321BOX) followed by electrophoresis. Gels were then transferred onto a nitrocellulose membrane (iBlot2, ThermoFisher). Membranes were blocked and incubated overnight at 4° C. with following antibodies: anti-ERα (D8H8) Rabbit mAb (#8644, Cell Signaling) and anti-β-actin (8H10D10) mouse mAb (Cell Signaling, #3700S). […]
# [5] = test system: T47D cells; assay: Palbociclib growth arrest and recovery, cell counts; assay type: cell-based; conditions: 500 nM palbociclib
# Procedure: T47D and MCF7 were confirmed as ER+ breast cancer cell lines using short tandem repeat (“STR”) testing (ATCC STR profiling service). […] After allowing 18-24 hours for the cells to attach to the plates, 500 nM palbociclib was added to each culture. Growth media and palbociclib was refreshed twice per week (every 3-4 days). […] For T47D cultures, the cells were suspended by trypsinization from triplicate cultures on days 1, 14, and 24 of palbociclib treatment and the cell density of each suspension was measured using a Vi-Cell XR cell counter. In a separate experiment, three additional T47D cultures were treated for 14 days with 500 nM palbociclib, then the palbociclib was washed off the cells and the cells were allowed to recover for 10 days. After 10 days of recovery, the cells were suspended by trypsinization and the cell density of each suspension was measured by cell counter.
# [6] = test system: MCF7 cells; assay: as above; assay type: cell-based; conditions: MCF7, 500 nM palbociclib
# Procedure: T47D and MCF7 were confirmed as ER+ breast cancer cell lines using short tandem repeat (“STR”) testing (ATCC STR profiling service). […] After 6 and 14 days of palbociclib treatment, the cells in each well were suspended by trypsinization and cell densities were measured by cell counter. For the additional MCF7 cultures that were treated, in parallel, for either 6 or 14 days with 500 nM palbociclib, the palbociclib was washed off the cells and they were allowed 7-8 days to recover. After this recovery period, the cells were suspended by trypsinization and the cell densities of each suspension were measured. Similar to the T47D cells, palbociclib treatment stably arrested MCF7 cells for up to 14 days of treatment (FIG. 1B). However, after removing palbociclib from the MCF7 cultures treated for either 6 or 14 days, the cells readily re-entered the cell cycle and proliferated.
# [7] = test system: CAMA1 cells; assay: Profiling of the response of CAMA1 to palbociclib; assay type: cell-based
# [8] = test system: ERα protein in MCF7 cells; assay: Western blot after palbociclib treatment; assay type: cell-based; conditions: MCF7, 500 nM palbociclib, 8 days
# Procedure: (§2) Cells were seeded into 6-well culture plates and allowed to attach overnight at 37° C., 5% CO2. […] Medium was refreshed every 3 days. At 3, 6 and 8 days of treatment, cells were harvested for protein and RNA lysates.
# [9] = test system: ERα protein in T47D cells; assay: Western blot after palbociclib treatment; assay type: cell-based; conditions: 500 nM palbociclib, 8 days
# Procedure: as §2
# [10] = test system: ER+ breast cancer PDX model ST340; assay: PDX tumor growth inhibition study; assay type: in vivo, female athymic nude mice; conditions: doses per Table 7; for % TGI Delta: PDX ST340, day 21, compared to Vehicle
# Procedure: (§3) Combination studies with palbociclib, fulvestrant and the KAT6 inhibitor, Compound E (KAT6i), were performed in two ER+ breast cancer PDX models: ST340 and ST941. ST340 was wildtype for ESR1. […] Both studies were conducted by XenoSTART (San Antonio, Texas), where 6-12 week-old female athymic nude mice (JAX, stock #007850) were subcutaneously implanted with ~70 mg tumor fragments. Animals were supplemented with exogenous estradiol ad libitum via drinking water throughout the duration of the studies. Tumor measurements and animal weights were captured twice per week, and animals were stratified and enrolled into the study when the mean tumor volume (TV, formula: width^2×length×0.5) reached 150-300 mm^3.
# (§4) Each study contained eight treatment groups of n=10 animals per group. The groups were as follows: 1) Vehicle (5% DMSO/40% PEG300/55% 1×PBS), 2) Compound E, 3) palbociclib, 4) fulvestrant, 5) palbociclib+fulvestrant, 6) Compound E +fulvestrant, 7) Compound E+palbociclib, and 8) Compound E+palbociclib+fulvestrant. Animals remained on study and were continued on treatments until the mean tumor volume of each group reached ~1500 mm^3. At that point, the final dose was administered, animals were sacrificed, and terminal samples were collected. Blood microsamples were collected from each group for pharmacokinetics (PK) analysis at 0, 3, and 7 hrs (n=3/timepoint) on day 14 of dosing and again on the terminal day of dosing.
# (§5) Analysis of covariance (ANCOVA) was used to determine statistical significance when comparing percent TGI between groups. Changes in bodyweights were calculated in relation to starting bodyweights at study initiation (day 0 of treatment).
# [11] = Bodyweight and health monitoring, PDX ST340 study; assay type: in vivo, female athymic nude mice; conditions: relative to day 0
# Procedure: as §3, §4, §5
# [12] = Bodyweight and health monitoring, PDX ST941 study; assay type: in vivo, female athymic nude mice; conditions: relative to day 0
# Procedure: as §3, §4, §5
smiles,measurement,setting,value
"COc1cccc(OC)c1S(=O)(=O)Nc1noc2cc(Cn3cccn3)cc(OC)c12 [COMPOUND C, 2,6-dimethoxy-N-{4-methoxy-6-[(1H-pyrazol-1-yl)methyl]-1,2-benzoxazol-3-yl}benzene-1-sulfonamide]",Kind of effect on cell growth,[1]; dose titration,cytostatic
same,Maximal reduction of growth,"[1]; single agent, about two weeks",about 40%
same,IC50,"[2]; Homo sapiens, ZR-75-1, ZR75-1, single agent, about two weeks, read-out: Concentration giving 50% growth inhibition",~3.9 nM
same,Kind of effect on cell growth,"[2]; ZR75-1, dose titration",strong dose-dependent cytotoxic effect
same,"NES (Normalized Enrichment Score), estradiol-induced genes",[3],"−9,92"
same,"NES (Normalized Enrichment Score), estradiol-repressed genes",[3],6.27
same,ERα and Cyclin D1 protein,[4],dose-dependent depletion
"CC(=O)c1c(C)c2cnc(Nc3ccc(N4CCNCC4)cn3)nc2n(C2CCCC2)c1=O [Palbociclib, 6-acetyl-8-cyclopentyl-5-methyl-2-(5-piperazin-1-yl-pyridin-2-ylamino)-8H-pyrido[2,3-d]pyrimidin-7-one]",Effect on cell cycle,[5],complete cell cycle arrest
same,Reversibility of growth arrest,[5]; after withdrawal,reversible upon palbociclib withdrawal
same,Effect on cell cycle,[6],complete cell cycle arrest
same,Reversibility of growth arrest,[6]; after withdrawal,reversible upon palbociclib withdrawal
same,Effect of single agent treatment on proliferation,[7],irreversible proliferation arrest
same,Reduction of ERα protein level,[8],about 50%
same,Reduction of ERα protein level,[9],about 50%
same,% TGI Delta,[10],43.7%
same,% TGI Delta,[10]; listed as palbociclib,~ 40%
same,Mean ± SEM (day 21),"[10]; PDX ST340, tumor volume (mm^3)",1051.4 ± 134
same,Day 21 mean change in bodyweight,[11],−2%
same,Maximum mean bodyweight loss,[11],−3%
same,Day 17 mean change in bodyweight,[12],−1%
same,Maximum mean bodyweight loss,[12],−3%
